“Also recorded” adds a separate entry of the source. Like-named read-outs stand apart in the source and are kept apart here.
Legend:
[1] = test system: New Zealand white rabbit fed with high fat diet; details: for atherosclerosis Grade: individual animals, listed as APOAI
Method: The treatment groups were given APOAJ via auricular vein once a week Vehicle controls received normal saline via auricular vein once a week. […] The body weight of animal was determined every week and whole blood was drawn every three weeks. The study duration was 19 weeks. At the end of study, all animals were sacrificed. […] Male New Zealand white rabbits were used in this study. […] Blood samples were taken 12 hour after fasting before study to determine the blood lipid parameters. […] Ten to 14 rabbits were in one group. […] First dose was given 1 week before high fat diet. […] 5.2 blood lipid parameters: whole blood was drawn every three weeks. Animals were subject to 12 hour fast before taking blood. […] The upper layer of serum was then separated and examined for total cholesterol (TC), total triglyceride (TG), low density lipoprotein cholesterin (LDL-C), and high density lipoprotein cholesterin (HDL-C). Test reagents were purchased from Shanghai A: The atherosclerosis of aorta (plaque area lj) B: Liver index C: Aorta, liver, heart, arteria carotis, kidney All animals were anesthetized by 20 of ethyl carbamate and then sacrificed with air injection. Abdomen cavity was opened. Whole blood was taken from heart. Heart was harvested along with 7 em of aorta. Then other organs like liver, kidney and arteria carotis were harvested. […] Pictures were taken then. Aorta was cut from aortic arch, opened longitudinally and taken picture. […] One piece of this sample was fixed in fomlalin for further pathological analysis. The weight of liver was determined immediately. Two pieces of specimen were cut from hepatic lobe. One was kept in cryo-preservation tube for lipid analysis and another one was fixed in formalin for further pathological analysis. Animals were fast for 12 hours before taking blood samples via auricular vein. […] Test reagents were purchased from Shanghai Rong Sheng Bio-pharmaceutical Co. Ltd. The aorta was dissected and opened for 7.5 em from aortic arch longitudinally. Pictures were taken and atherosclerosis changing was analyzed.

[2] = test system: Apo E(-/-) mice fed with HFD/High Cholesterol diet; experiment: lipid profile and atherosclerosis plaque in 18 ApoE mice, 4 weeks study; type: in vivo, mouse
Method: [table] […] Before HFD; 4 week: […] After 4 weeks treatment Oil Red staining procedure: • Sacrificed the mice and heart, aorta, and arteries were dissected under the dissecting microscope. […] Stain with freshly prepared Oil Red 0 working solution 10 mins. Image analysis procedure: • The unfolded vascular inner wall “Were scanned with Aperio ScanScope system and the area of atherosclerotic plaque was measured by Image-Proplus software after oil red 0 staining as follow picture shown. We measured the sum lesion areas and mean density using ipp software and calculated atherosclerotic percent. Area percent (%)” Sum area of atherosclerotic plaque (mm2) I whole area of vascular inner wall

6-OHDA lesioned rat = 6-OHDA lesioned rat model of Parkinson's disease (cylinder, adjusting step, rotation, TH staining); type: in vivo; details: prophylactic, high and moderate groups vs vehicle, trend
Method: 1. Animals: male SO rats were purchased from Shanghai Laboratory Animal Center (SLAC). They were housed under 21-23 OC, with 12 h light-dark life cycle. Food and water were given ad libitum.
2. 6uOHDA lesion: Rats were anesthetized with 60 mg/kg sodium pentobarbital. They were stereotaxic injected with total dose of 20 pg of fresh prepared 6-OHDA (dissolved in saline containing 0.05% ascorbic acid, calculated as free base) into tvvo sites of the left striatum, using the following coordinates (in mm relative to Bregma): AP+i 0.0, L −2.5, DV −5.0; AP −0.4, L −4.0, DV −5.5. The injection rate was i pi/min and a total of 2 iJI was injected at each site. The needle was left in place for 3 min before retracting.
3. Cylinder test: Rats were placed in a transparent cylinder (22 cm in diameter and 30 cm height). Animal would rear and support its body with one or both of its forelimbs. […] Each behavioral was expressed as percent use of left, right or both limb(s) relative to the total number.
4. […] The number of adjusting steps of each left and right forelimbs on both directions was recorded individually. […]
6. […] Number of positively stained cells in the left and right sides of SN in each section was counted to make the summation. The ratio of left/right was calculated.
7. Statistic analysis: Data were expressed as mean±SEI\tl and analyzed with ANOVA followed by Tukey test. […]

[3] = low dose group vs vehicle control
[4] = medium group vs vehicle control

Substance: human Apoiipoprotein AI, injection [APOA1]
- Lipid content in aorta: HDL-C ([1]; High dose): 0.111
- Lipid content in aorta: LDL-C ([1]; High dose): 0.318
- Lipid content in aorta: TC ([1]; High dose): 0.29
- Lipid content in aorta: TG ([1]; High dose): 0.402
- Lipid content in liver: HDL-C ([1]; High dose): 0.825 ± 0.129
- Lipid content in liver: LDL-C ([1]; High dose): 2.302 ± 0.054
- Lipid content in liver: TC ([1]; High dose): 2.841 ± 0.298
- Lipid content in liver: TG ([1]; High dose): 1.3 ± 0.171
- Liver index ([1]; High dose (n = 8)): 4.257 ± 0.482%
- Liver weight ([1]; High dose (n = 8)): 151.69 ± 18.49 g
- Lipid content in aorta: HDL-C ([1]; Low dose): 0.092
- Lipid content in aorta: LDL-C ([1]; Low dose): 0.254
- Lipid content in aorta: TC ([1]; Low dose): 0.28
- Lipid content in aorta: TG ([1]; Low dose): 0.337
- Lipid content in liver: HDL-C ([1]; Low dose): 0.803 ± 0.236
- Lipid content in liver: TC ([1]; Low dose): 2.95 ± 0.809
- Lipid content in liver: TG ([1]; Low dose): 1.369 ± 0.251
- Liver index ([1]; Low dose (n = 12)): 3.886 ± 0.489%
- Liver weight ([1]; Low dose (n = 12)): 128.096 ± 20.43 g
- Liver index ([1]; Medium dose (n = 9)): 3.708−.−i−:( ).391%
- Liver weight ([1]; Medium dose (n = 9)): 112.006− −+ .−25.79 g
- Lipid content in aorta: HDL-C ([1]; Middle dose): 0.128
- Lipid content in aorta: LDL-C ([1]; Middle dose): 0.307
- Lipid content in aorta: TC ([1]; Middle dose): 0.332
- Lipid content in aorta: TG ([1]; Middle dose): 0.388
- Lipid content in liver: HDL-C ([1]; Middle dose): 0.815 ± 0.249
- Lipid content in liver: LDL-C ([1]; Middle dose): 1.407 ± 0.418
- Lipid content in liver: TC ([1]; Middle dose): 2,214 ± 0.515
- Lipid content in liver: TG ([1]; Middle dose): 1.081 ± 0.31
- blood lipid parameters ([1]; given along with high fat diet): no significant decrease in blood lipid parameters
- TG, lipid content in liver ([1]; high dose group vs vehicle control): significantly lower
- atherosclerosis Grade ([1]; high dose group): IV (Grade IV was greater than 75%)
- pathological change of aorta ([1]; low dose group): no significant improvement
- TG, lipid content in liver [1, 3]: significantly lower
- cellular swelling in liver [1, 3]: same
- fat degeneration in liver [1, 3]: better
- atherosclerosis Grade ([1]; low dose group): I (grade I was less than 25 ?-)); also recorded: IV (Grade IV was greater than 75%)
- atherosclerosis Grade ([1]; medium dose group): I (grade I was less than 25 ?-))
- area of atherosclerosis ([1]; medium group (40 mg/kg) vs vehicle control): significant less
- LDL-C, lipid content in liver [1, 4]: significantly lower
- TC, lipid content in liver [1, 4]: significantly lower
- TG, lipid content in liver [1, 4]: significantly lower
- cellular swelling and fat degeneration in liver [1, 4]: better
- pathological change of aorta (endothelium swelling, smooth muscle migrating, foam cell formation) [1, 4]: better
- Body weight Wk 19 ([1]; rabbit, in vivo): 3.19-.-i-:( ).278 kg
- atherosclerosis change in Arteria carotis ([1]; rabbit, in vivo): no atherosclerosis change found
- calcification, pathological examination ([1]; rabbit, in vivo): no calcification found
- kidney Pathological change ([1]; rabbit, in vivo): -
- pathological change in heart and kidney ([1]; rabbit, in vivo): no pathological change found
- high density lipoprotein cholesterin (HDL-C) Wk 19 ([1]; serum, High dose (n = 8)): 4.993 · −+ :2.018 mmol/L
- ligh density lipoprotein cholesterin (LDL-C) Wk 0 ([1]; serum, High dose (n = 8)): 0.92 ± 0.324 mmol/L
- ligh density lipoprotein cholesterin (LDL-C) Wk 19 ([1]; serum, High dose (n = 8)): 14.1 ± 4.188 mmol/L
- total cholesterol (TC) Wk 0 ([1]; serum, High dose (n = 8)): 1.59 .t-J}.48 mmol/L
- total cholesterol (TC) Wk 19 ([1]; serum, High dose (n = 8)): 12.49 -t-2.81 mmol/L
- high density lipoprotein cholesterin (HDL-C) Wk 0 ([1]; serum, Low dose (n = 12)): 0.705 ± 0.246 mmol/L
- high density lipoprotein cholesterin (HDL-C) Wk 19 ([1]; serum, Low dose (n = 12)): 3.744 ± 2.14 mmol/L
- ligh density lipoprotein cholesterin (LDL-C) Wk 0 ([1]; serum, Low dose (n = 12)): 0.826 ± 0.279 mmol/L
- ligh density lipoprotein cholesterin (LDL-C) Wk 19 ([1]; serum, Low dose (n = 12)): 7.298 ± 4.60 mmol/L
- total cholesterol (TC) Wk 0 ([1]; serum, Low dose (n = 12)): 1.06.-i-:0.27 mmol/L
- total cholesterol (TC) Wk 19 ([1]; serum, Low dose (n = 12)): 9.07-.+:4.92 mmol/L
- total triglyceride (TG) Wk 0 ([1]; serum, Low dose (n = 12)): 0.786 ± 0.229 mmol/L
- total triglyceride (TG) Wk 19 ([1]; serum, Low dose (n = 12)): 1.267 ± 0.772 mmol/L
- high density lipoprotein cholesterin (HDL-C) Wk 0 ([1]; serum, Medium dose (n = 9)): 0.67 ± 0.207 mmol/L
- high density lipoprotein cholesterin (HDL-C) Wk 19 ([1]; serum, Medium dose (n = 9)): 4.343 ± 2.439 mmol/L
- ligh density lipoprotein cholesterin (LDL-C) Wk 19 ([1]; serum, Medium dose (n = 9)): 6.357 ± 4.475 mmol/L
- total cholesterol (TC) Wk 0 ([1]; serum, Medium dose (n = 9)): 1.77 ± 0.783 mmol/L
- total cholesterol (TC) Wk 19 ([1]; serum, Medium dose (n = 9)): 10.28 ± 5.82 mmol/L
- total triglyceride (TG) Wk 0 ([1]; serum, Medium dose (n = 9)): 0.656 ± 0.19 J·mmol/L
- HDL-C ([1]; serum, all treatment groups vs vehicle control): significantly high
- dose escalation effect ([1]; three treatment groups, anatomic, pathological and biochemistry examination): no dose escalation effect
- Liver index ([1]; treatment group vs vehicle): lower in treatment group, but there's no statistical difference found
- lipid content in aorta ([1]; treatment groups vs vehicle control): lower in treatment groups than that in vehicle control but there was no statistical significance
- blood plasma lipid profile ([2]; after 5 weeks treatment, 0.2 ml iv/ip): didn't improve the lipid profile
- atherosclerotic plaques/lesions ([2]; vs vehicle group after 14 dosing): trend on reducing the atherosclerotic plaques/lesions
- neuron count, damage caused by 6-OHDA lesion (6-OHDA lesioned rat): reduce the damage caused by 6-OHDA lesion
